Experimental data reported in article PMC6407599 (Journal of Enzyme Inhibition and Medicinal Chemistry, 2019).
Values joined by “and” are separate entries in the source; they are usually repeats but may differ in a detail not shown here. Equal values may be shown once. Where a name gives a salt, the structure may show the parent alone. Read-outs that look alike come from different tables or passages of the source. Square brackets hold non-standard residues; d marks the D form. Peptide text beside a SMILES is read from it. * marks the point of attachment. Lys(Me2) = CN(C)CCCC[C@H](N)C(=O)O; Lys(Me) = CNCCCC[C@H](N)C(=O)O; Cbz = O=C(OCc1ccccc1)*

Assays:
[1] = Metabolism assay using human liver microsomes; format: in vitro ADME; settings: for cleavage of acetyl or trifluoroacetyl group by human liver microsomes: 180 min incubation; for cleavage of acetyl group by human liver microsomes: after 10 min
Protocol: Human liver microsomes (Life Technologies Gibco cat. # HMMPCL) were thawed on ice and suspended in 100 mM phosphate buffer (pH 7.4) at 0.5 mg/mL. Compounds dissolved in DMSO were then added to the reaction mixture at a final concentration of 5 µM and a final DMSO concentration of 0.1%. Metabolism was initiated by adding 5 mM NADPH and the reactions were incubated at 37 °C in a water bath. Fifty microlitre aliquots of the reaction mixture were taken at various time points and added to 100 µL of cold methanol to terminate the reaction. The time points were centrifuged at 1000 × g for 5 min. Samples were stored at −20 °C until LC/MS analysis.
Using commercially available liver microsomes that contain the full set of endoplasmic reticulum-based metabolic enzymes, including Cyp450s, in an in vitro system the O- and N-dealkylation processes of LB55 were evaluated (Figure 3)[47–48]. Human liver microsomes were purchased from Life Technologies Australia Pty Ltd (catalogue number HMMCPL) and were prepared from a pool of 50 individual male and female donors. The microsomes were diluted into phosphate buffer at pH 7.4 and incubated with LB55 at 37 °C in the presence of the enzyme cofactor NADPH, which initiates the reactions. Aliquots of the reaction mixture were taken at several time points and quenched with cold methanol, which inhibits enzyme activity. The samples were immediately centrifuged at high speed to pellet the microsomes and the supernatants were analysed via LC/MS
However, for simplicity and speed of assessment we opted to identify the removal of the pro-drug moieties using LC/MS in selected-ion mode (SIM). We scanned for specific mass-to-charge ratios (m/z) based on the molecules molecular weight. […] LB55 was incubated with the human liver microsomes for 180 min and samples were taken at 0, 10, 20, 30, 60, 120, and 180 min and analysed via LC/MS in SIM mode. The scanning range was set at m/z 600–800, as this range would capture both the parent LB55 and any demethylated metabolites including LB51 (Figure 3).
Using the same commercially available liver microsomal assay described earlier, we evaluated the removal of acetylated and trifluoroacetylated amino acids. The studies were performed on three amino acids on LB51 that required protecting groups: serine, tyrosine, and lysine (Figure 4).

[2] = tested on: Hsp90-Cyp40 interaction (C-terminal domain of Hsp90 and full-length Cyp40); test: AlphaLISA binding assay, Hsp90-Cyp40 interaction; settings: for efficacy at inhibiting the binding event between Hsp90 and Cyp40: C-terminal domain of Hsp90 and full-length Cyp40; for IC50: C-terminal domain of Hsp90 and full-length Cyp40, DMSO (1%) = 100% binding, read-out: IC50, inhibition of Hsp90-Cyp40 interaction
Protocol: The binding assays were performed using an Hsp90 (C-terminal) Inhibitor Screening Kits (cat. 50314 or 50317) purchased from BPS Bioscience. The assay was performed according to the manufacturer's protocol and utilised AlphaLISA® technology (PerkinElmer). The test compounds were dissolved in 100% DMSO and diluted with water to the desired concentration, so that the final dilution was dissolved in 5% DMSO with water. Two microlitres of the dilution was added to a 10 µL reaction so that the final concentration of DMSO was 1% in all reactions. The reactions were conducted at room temperature for 30 min in a 10 µL mixture containing assay buffer, 6 ng (24 nM) of a C-terminal Hsp90β (UniProt P08238, a.a. 527–724) or C-terminal Hsp90α (UniProt P07900, a.a. 535–732), 40 ng (60 nM) Cyp40, and the test compound. Note: for the full-length Hsp90 binding assays, C-terminal Hsp90 was replaced with 24 nM of full-length Hsp90α (Abcam cat # ab48801). After the 30 min incubation, 10 µL of buffer containing 20 µg/mL glutathione acceptor beads (Perkin Elmer) were added to the reaction mix and incubated for 30 min in the dark. Ten microlitres of 40 µg/mL streptavidin donor beads (Perkin Elmer) were then added and the final 30 µL mixture was incubated for 1 h in the dark. The AlphaLISA® signal was measured using a Tecan F200 Pro multimode plate reader.
Modifications to the side chains using the common strategy of O- and N-alkylations were the first prodrugs produced (Figure 2). Compounds LB58, LB56, LB97, and LB55 were all based on the structure of LB51 but contained polar side chains that were masked with methyl moieties (Figure 2). […] However, masking groups often affect the target binding affinity, and evaluation of these molecules in binding assays was required. A biochemical assay using AlphaLISA technology was used to evaluate the efficacy of these molecules in blocking the interaction between Hsp90 and the co-chaperone, Cyp40 (Figure 2). Each compound was incubated at multiple concentrations with the C-terminal domain of Hsp90 and full-length Cyp40. Beads specific for each protein were incubated with the reaction mixture. When the two proteins are bound to each other, the beads for one protein transfer energy to the beads of the other protein, thereby producing a signal. When the binding interaction between the two proteins is inhibited, energy transfer cannot occur, which results in no signal being produced. DMSO (1%) was used as a control, where it represents 100% binding between the two proteins.
The alpha biochemical assay was used to evaluate the efficacy of these two molecules, LB51(Ac)2–Cbz and LB63(Ac)2–Cbz, in blocking the interaction between Hsp90 and the co-chaperone, Cyp40 (Figure 6(A)). Each compound was incubated at multiple concentrations with the C-terminal domain of Hsp90 and full-length Cyp40. DMSO (1%) was used as a negative control to represent 100% binding between the two proteins, and LB51 and LB63 were used as positive controls, inhibiting the binding event. LB51(Ac)2–Cbz was ineffective at inhibiting the interaction between Hsp90 and Cyp40 (Figure 6(a)).

Caco-2 = settings: cited from earlier work; for apparent permeability Papp: Caco-2 assays
mouse liver = test: Metabolism assay in a mouse (liver extract, LC/MS); format: in vivo; settings: IP injection 59.4 mg/kg, 1 h
Protocol: Mice were purchased from Australian BioResources (ABR) (Moss Vale, NSW, Australia) at 7 weeks of age and shipped to a specific pathogen-free facility at UNSW Biological Resources Centre (Sydney, Australia) with 12 h light/dark cycles. Following 1 week of acclimatisation, mice were injected in the intraperitoneal space with LB55 (1.2 mg in 120 µL Milli-Q water). One hour later, mice were euthanised by CO2 asphyxiation and the liver was collected for drug extraction. All mouse experiments were approved by the UNSW Animal Care and Ethics Committee. To extract the compound for LC/MS analysis, the liver tissue was powdered in a mortar and pestle that had been pre-cooled with liquid nitrogen. The tissue was then homogenised in phosphate buffered saline (pH 7.4) by sonication for 2 h. The homogenate was then centrifuged at 800 × g for 10 min at 4 °C before collecting the supernatant. […] The extraction was then centrifuged at 1000 × g for 10 min at 4 °C and subsequently analysed by LC/MS.
The stability of LB55 in a mouse liver was accomplished by treating the mouse with LB55 via intraperitoneal (IP) injection at 59.4 mg/kg for 1 h. […] The mixture was then centrifuged, and the supernatant was analysed via LC/MS in SIM mode, scanning for parent LB55 and any demethylated metabolites including LB51.

C-terminal Hsp90β [3] = target: T1, C-terminal Hsp90β (UniProt P08238, a.a. 527–724) or C-terminal Hsp90α (UniProt P07900, a.a. 535–732) (UniProt P08238); test: AlphaScreen or HTRF; AlphaLISA competition (BPS Bioscience kit): 24 nM C-terminal Hsp90, 60 nM Cyp40 and test compound in 10 µL assay buffer, 1% DMSO, room temperature, 30 min; then glutathione acceptor beads and streptavidin donor beads; DMSO = 100% binding
[4] = target: C-terminal Hsp90 (His-tagged, competitive binding assay); test: pull-down; competitive binding: C-terminal Hsp90 (100 µM) with LB51-tag (100 µM) 1 h at RT, then untagged compound (0–100 µM) 1 h; captured on NeutrAvidin agarose, 6 washes; Hsp90 detected by Western blot with anti-6×His; DMSO = 100% binding
Chain of C-terminal Hsp90 (His-tagged, competitive binding assay) (P08238 527-724): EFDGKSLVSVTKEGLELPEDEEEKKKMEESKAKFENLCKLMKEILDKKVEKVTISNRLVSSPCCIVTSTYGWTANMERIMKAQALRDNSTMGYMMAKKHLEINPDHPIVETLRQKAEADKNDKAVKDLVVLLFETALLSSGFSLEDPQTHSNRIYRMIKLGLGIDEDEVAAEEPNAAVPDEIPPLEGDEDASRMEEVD

C-terminal Hsp90β [5] = target: T1, C-terminal Hsp90β; test: AlphaScreen or HTRF; AlphaLISA competition (BPS Bioscience kit): 24 nM C-terminal Hsp90, 60 nM Cyp40 and test compound in 10 µL assay buffer, 1% DMSO, room temperature, 30 min; then glutathione acceptor beads and streptavidin donor beads; DMSO = 100% binding; remark: listed apart in the source

CC(=O)NCCCC[C@H](NC(=O)OCC1c2ccccc2-c2ccccc21)C(=O)O
cleavage of acetyl or trifluoroacetyl group by human liver microsomes [1]: not cleaved

O=C(N[C@@H](CCCCNC(=O)C(F)(F)F)C(=O)O)OCC1c2ccccc2-c2ccccc21 [Fmoc-Lys(Tfa)-OH]
cleavage of acetyl or trifluoroacetyl group by human liver microsomes [1]: not cleaved

CC(=O)OC[C@H](NC(=O)OCC1c2ccccc2-c2ccccc21)C(=O)O [Fmoc-Ser(Ac)-OH]
cleavage of acetyl group by human liver microsomes [1]: mostly cleaved

CC(=O)Oc1ccc(C[C@H](NC(=O)OCC2c3ccccc3-c3ccccc32)C(=O)O)cc1 [Fmoc-Tyr(Ac)-OH]
cleavage of acetyl group by human liver microsomes [1]: mostly cleaved

CC(=O)OC[C@@H]1NC(=O)[C@H](CC(N)=O)NC(=O)[C@H](CCCCNC(=O)OCc2ccccc2)NC(=O)[C@H](Cc2ccccc2)NC(=O)[C@H](Cc2ccc(OC(C)=O)cc2)NC1=O [LB51(Ac)2–Cbz, cyclo-Phe-Tyr(Ac)-Ser(Ac)-Asn-Lys(Cbz)] (cyclo(K(Cbz)NS(Ac)Y(Ac)F))
efficacy at inhibiting the binding event between Hsp90 and Cyp40 [2]: ineffective

NCCCC[C@@H]1NC(=O)[C@H](Cc2ccccc2)NC(=O)[C@H](Cc2ccc(O)cc2)NC(=O)[C@H](CO)NC(=O)[C@H](CC(N)=O)NC1=O [LB51] (cyclo(KNSYF))
efficacy at inhibiting the binding event between Hsp90 and Cyp40 [2]: most effective
IC50 [2]: 4 µM
apparent permeability Papp (Caco-2): 3.3 ×10⁻⁶ cm/s and 3 ×10⁻⁶ cm/s
membrane permeability Papp (Caco-2; backbone N-methylation study): 3 10^-6 cm/s

COC[C@@H]1NC(=O)[C@H](CC(N)=O)NC(=O)[C@H](CCCCN(C)C)NC(=O)[C@H](Cc2ccccc2)NC(=O)[C@H](Cc2ccc(OC)cc2)NC1=O [LB55] (cyclo([Lys(Me2)]NS(Me)Y(Me)F))
metabolism by human liver microsomes (LC/MS SIM) ([1]; 5 µM, NADPH, 37 °C, 180 min): no metabolism occurred
metabolism in mouse liver (LC/MS of liver extract) (mouse liver): a small quantity of LB51 is produced
apparent permeability Papp (Caco-2): 5.6 ×10⁻⁶ cm/s

CC(=O)OC[C@@H]1NC(=O)[C@H](CC(N)=O)NC(=O)[C@H](CCCCNC(=O)OCc2ccccc2)NC(=O)[C@H](C)NC(=O)[C@H](Cc2ccc(OC(C)=O)cc2)NC1=O [LB63(Ac)2–Cbz, cyclo-Ala-Tyr(Ac)-Ser(Ac)-Asn-Lys(Cbz)] (cyclo(K(Cbz)NS(Ac)Y(Ac)A))
IC50 [2]: 10 µM

C[C@@H]1NC(=O)[C@H](Cc2ccc(O)cc2)NC(=O)[C@H](CO)NC(=O)[C@H](CC(N)=O)NC(=O)[C@H](CCCCN)NC1=O [LB63] (cyclo(KNSYA))
IC50 [2]: 2 µM
apparent permeability Papp (Caco-2): 0.9 ×10⁻⁶ cm/s

CNCCCC[C@@H]1NC(=O)[C@H](Cc2ccccc2)NC(=O)[C@H](Cc2ccc(OC)cc2)NC(=O)[C@H](CO)NC(=O)[C@H](CC(N)=O)NC1=O [LB97] (cyclo([Lys(Me)]NSY(Me)F))
efficacy at inhibiting the binding event between Hsp90 and Cyp40 [2]: most effective
apparent permeability Papp (Caco-2): 1.9 ×10⁻⁶ cm/s

B1: LB51(Ac)2–Cbz (peptide)
peptide: cyclo(K(Cbz)NS(Ac)Y(Ac)F)
SMILES: CC(=O)OC[C@@H]1NC(=O)[C@H](CC(N)=O)NC(=O)[C@H](CCCCNC(=O)OCc2ccccc2)NC(=O)[C@H](Cc2ccccc2)NC(=O)[C@H](Cc2ccc(OC(C)=O)cc2)NC1=O
IC50 (C-terminal Hsp90β [3]): > 10 µM

B2: LB63(Ac)2–Cbz (peptide)
peptide: cyclo(K(Cbz)NS(Ac)Y(Ac)A)
SMILES: CC(=O)OC[C@@H]1NC(=O)[C@H](CC(N)=O)NC(=O)[C@H](CCCCNC(=O)OCc2ccccc2)NC(=O)[C@H](C)NC(=O)[C@H](Cc2ccc(OC(C)=O)cc2)NC1=O
IC50 [4]: 20 µM
IC50 (C-terminal Hsp90β [5]): 10 µM
IC50 (C-terminal Hsp90β [3]): > 10 µM

KNSYA (head-to-tail cyclic) [LB63]
IC50 (C-terminal Hsp90β [5]): 2 µM

KNSYF (head-to-tail cyclic) [LB51]
IC50 (C-terminal Hsp90β [5]): 4 µM
